Measurements reported in patent publication US20180000085A1, “USE OF PICOLINAMIDE COMPOUNDS WITH FUNGICIDAL ACTIVITY” (DOW AGROSCIENCES LLC, priority 2014, published 2018).

Assays:
Assay type in all cases: in vivo
Zymoseptoria tritici = assay: Leaf blotch of wheat (SEPTTR) disease control on wheat seedlings; details: low volume application, 125.1 g/H; for SEPTTR 1DP disease control rating, LV activity at 125.1 g/H: 1 day protectant; for SEPTTR 3DC disease control rating, LV activity at 125.1 g/H: 3 day curative
Puccinia triticina = assay: Wheat brown rust (PUCCRT) disease control on wheat seedlings; design: key to PUCCRT 3DC, HV activity at 100 ppm (% control rating) / PUCCRT disease control, 3DC / PUCCRT 1DP disease control rating, HV activity / PUCCRT 3DC disease control rating, HV activity / PUCCRT 3DC, LV activity at 125.1 g/H (% Control rating) / PUCCRT 1DP, LV activity at 125.1 g/H (% Control rating) / PUCCRT 3DC disease control rating, LV activity at 125.1 g/H / PUCCRT 1DP disease control rating, LV activity at 125.1 g/H / PUCCRT 3DC disease control rating, HV activity at 100 ppm / PUCCRT 1DP disease control rating, HV activity at 100 ppm / HV activity at 100 ppm PUCCRT 3DC (disease control rating) / LV activity at 125.1 g/H PUCCRT 1DP (disease control rating) / LV activity at 125.1 g/H PUCCRT 3DC (disease control rating): A: > 80; B: ≤ 80; C: Not Tested; D: No Activity Observed in the Reported Assay; details: low volume application, 125.1 g/H; for PUCCRT 1DP disease control rating, LV activity at 125.1 g/H: 1 day protectant; for PUCCRT 3DC disease control rating, LV activity at 125.1 g/H: 3 day curative
Cercospora beticola = assay: Leaf spot of sugar beets (CERCBE) disease control; details: 100 ppm; 1 Day Protectant; sugar beet
Experimental: All fungicides were evaluated using the aforementioned method for their activity vs. all target diseases, unless stated otherwise. Wheat leaf blotch and brown rust activity were also evaluated using track spray applications, in which case the fungicides were formulated as EC formulations, containing 0.1% Trycol 5941 in the spray solutions. Wheat plants (variety Yuma) were grown from seed in a greenhouse in 50% mineral soil/50% soil-less Metro mix until the first leaf was fully emerged, with 7-10 seedlings per pot. These plants were inoculated with an aqueous spore suspension of Zymoseptoria tritici either prior to or after fungicide treatments. After inoculation the plants were kept in 100% relative humidity (one day in a dark dew chamber followed by two to three days in a lighted dew chamber at 20° C.) to permit spores to germinate and infect the leaf. The plants were then transferred to a greenhouse set at 20° C. for disease to develop. When disease symptoms were fully expressed on the 1st leaves of untreated plants, infection levels were assessed on a scale of 0 to 100 percent disease severity. Percent disease control was calculated using the ratio of disease severity on treated plants relative to untreated plants. Example F: Evaluation of Fungicidal Activity: Leaf Spot of Sugar Beets (Cercospora beticola; Bayer Code CERCBE) Sugar beet plants (variety HH88) were grown in soil-less Metro mix and trimmed regularly to maintain a uniform plant size prior to test. Plants were inoculated with a spore suspension 24 hr after fungicide treatments. Inoculated plants were kept in a dew chamber at 22° C. for 48 hr then incubated in a greenhouse set at 24° C. under a clear plastic hood with bottom ventilation until disease symptoms were fully expressed. Fungicide formulation, application and disease assessment on the sprayed leaves followed the procedures as described in the Example A.

Structure (SMILES) | SEPTTR 1DP, LV activity at 125.1 g/H (% Control rating) (Zymoseptoria tritici; 1 Day Protectant) | SEPTTR 3DC, LV activity at 125.1 g/H (% Control rating) (Zymoseptoria tritici; 3 Day Curative) | PUCCRT 1DP, LV activity at 125.1 g/H (% Control rating) (Puccinia triticina; 1 Day Protectant) | PUCCRT 3DC, LV activity at 125.1 g/H (% Control rating) (Puccinia triticina; 3 Day Curative) | CERCBE disease control, 1DP (Cercospora beticola) | LV activity at 125.1 g/H SEPTTR 1DP (disease control rating) (Zymoseptoria tritici; 1 Day Protectant, wheat leaf blotch) | LV activity at 125.1 g/H SEPTTR 3DC (disease control rating) (Zymoseptoria tritici; 3 Day Curative, wheat leaf blotch) | LV activity at 125.1 g/H PUCCRT 1DP (disease control rating) (Puccinia triticina; 1 Day Protectant, wheat brown rust) | LV activity at 125.1 g/H PUCCRT 3DC (disease control rating) (Puccinia triticina; 3 Day Curative, wheat brown rust) | SEPTTR 1DP disease control rating, LV activity at 125.1 g/H (Zymoseptoria tritici) | SEPTTR 3DC disease control rating, LV activity at 125.1 g/H (Zymoseptoria tritici) | PUCCRT 1DP disease control rating, LV activity at 125.1 g/H (Puccinia triticina) | PUCCRT 3DC disease control rating, LV activity at 125.1 g/H (Puccinia triticina)
COc1ccnc(C(=O)N[C@@H](C)C(=O)O[C@@H](C)[C@H](Oc2ccccc2)C(C)C)c1OC(C)=O [Cmpd 478] | A (> 80) | A (> 80) | A (> 80) | A (> 80) | B (≤ 80) |  |  |  |  |  |  |  | 
CCC(CC)[C@@H](Oc1ccc(F)cc1)[C@H](C)OC(=O)[C@H](C)NC(=O)c1nccc(OC)c1OCOC(C)=O [Cmpd 587] | A (> 80) | A (> 80) | A (> 80) | A (> 80) | A (> 80) |  |  |  |  |  |  |  | 
COc1ccnc(C(=O)N[C@@H](C)C(=O)O[C@@H](C)[C@H](Oc2cccc(F)c2)c2ccccc2)c1OCOC(C)=O [Cmpd 574] | A (> 80) | A (> 80) | A (> 80) | A (> 80) | A (> 80) |  |  |  |  |  |  |  | 
CCC(CC)[C@@H](Oc1ccccc1)[C@H](C)OC(=O)[C@H](C)NC(=O)c1nccc(OC)c1OCOC(C)=O [Cmpd 477] | A (> 80) | A (> 80) | A (> 80) | A (> 80) | A (> 80) |  |  |  |  |  |  |  | 
COc1ccnc(C(=O)N[C@H](C)C(=O)O[C@@H](C)[C@H](Oc2ccccc2)C(C)C)c1OCOC(C)=O [Cmpd 558] | B (≤ 80) | B (≤ 80) | D | B (≤ 80) | B (≤ 80) |  |  |  |  |  |  |  | 
COc1ccnc(C(=O)N[C@@H](C)C(=O)O[C@@H](C)[C@@H](CC(C)C)Oc2ccccc2)c1OCOC(=O)C(C)C [Cmpd 1101] |  |  |  |  | A (> 80) | A (> 80) | A (> 80) | A (> 80) | A (> 80) |  |  |  | 
CCC(C)C(Oc1ccccc1)C(C)OC(=O)C(C)NC(=O)c1nccc(OC)c1OC(C)=O (stereo not shown) [Cmpd 691] |  |  |  |  | B (≤ 80) |  |  |  |  | A (> 80) | A (> 80) | A (> 80) | A (> 80)
C=CC(C)C(Oc1ccccc1)C(C)OC(=O)C(C)NC(=O)c1nccc(OC)c1OCOC(C)=O (stereo not shown) [Cmpd 694] |  |  |  |  | A (> 80) |  |  |  |  | B (≤ 80) | A (> 80) | A (> 80) | A (> 80)
COc1ccnc(C(=O)N[C@H](C)C(=O)O[C@H](C)[C@@H](Oc2ccccc2)C(C)C)c1OCOC(C)=O [Cmpd 548] | B (≤ 80) | B (≤ 80) | D | D | B (≤ 80) |  |  |  |  |  |  |  | 
COc1ccnc(C(=O)N[C@H](C)C(=O)O[C@H](C)[C@@H](Oc2ccccc2)c2ccccc2)c1OCOC(C)=O [Cmpd 549] | B (≤ 80) | B (≤ 80) | D | D | B (≤ 80) |  |  |  |  |  |  |  | 
COc1ccnc(C(=O)N[C@@H](C)C(=O)O[C@@H](C)[C@H](Oc2ccccc2)C2CCCC2)c1OCOC(C)=O [Cmpd 556] | A (> 80) | A (> 80) | A (> 80) | A (> 80) | A (> 80) |  |  |  |  |  |  |  | 
COc1ccnc(C(=O)N[C@H](C)C(=O)O[C@@H](C)[C@@H](Oc2ccccc2)C(C)C)c1OCOC(C)=O [Cmpd 559] | B (≤ 80) | A (> 80) | D | D | B (≤ 80) |  |  |  |  |  |  |  | 
COc1ccnc(C(=O)N[C@@H](C)C(=O)O[C@H](C)[C@@H](Oc2ccccc2)c2ccccc2)c1OCOC(C)=O [Cmpd 547] | A (> 80) | A (> 80) | A (> 80) | A (> 80) | B (≤ 80) |  |  |  |  |  |  |  | 
CC[C@@H](CCOC)[C@@H](Oc1ccccc1)[C@H](C)OC(=O)[C@H](C)NC(=O)c1nccc(OC)c1OCOC(C)=O [Cmpd 476] | A (> 80) | A (> 80) | A (> 80) | A (> 80) | B (≤ 80) |  |  |  |  |  |  |  | 
